Test systems include 786-0; DU-145; EKVX; HCC 2998; HCT-15; MDA-N; Malme-3M; OVCAR-8; PC-3; RXF 393; SK-MEL-2; SK-MEL-5; SK-OV-3; SN12C; SW-620; T47D; UACC-257; UO-31; NCI-H460; OVCAR-4.
Holding throughout (assay): NCI-60 cell line screen, 48 h

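Each compound was tested at five concentrations against cells in 96-well plates for 48 hours. GI50: concentration for 50% inhibition of growth.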 The source made the active and inactive calls. Cut-off read from the data, not from the text of the source: active = GI50 up to about 1.1 µM and inactive = higher.

Consider `CCOC(=O)C1C(C)C2(C#N)C(=N)OC1(C)C2(C#N)C#N` (configuration not stated), for which the GI50 in the assay with 786-0 was 66.7 µM (inactive); with DU-145, 78.5 µM (inactive); with EKVX it was > 100 µM (inactive); in the assay on HCC 2998, > 10 µM (inactive); with HCT-15, 12.5 µM; with MDA-N it was 46.1 µM (inactive). In addition, the GI50 in the assay on Malme-3M was 77.3 µM (inactive); with OVCAR-8, > 100 µM (inactive); in the assay with PC-3, > 100 µM (inactive); in the assay with RXF 393 it was 25.8 µM (inactive); with SK-MEL-2, 58.2 µM (inactive); in the assay on SK-MEL-5, 41.4 µM (inactive). Also, the GI50 was > 100 µM (inactive) with SK-OV-3; 64.9 µM (inactive) in the assay with SN12C; 84.7 µM (inactive) with SW-620; 48.1 µM (inactive) in the assay with T47D; 42.1 µM (inactive) with UACC-257; 76.9 µM (inactive) with UO-31.

Turning to `CN(C)N1C(=C(C#N)C#N)C(c2ccccc2)CC1C#N` (configuration not stated), the GI50 with 786-0 was > 100 µM (inactive); with DU-145 it was > 100 µM (inactive); in the assay with EKVX, > 100 µM (inactive); in the assay on HCC 2998, > 100 µM (inactive); with HCT-15, greater than 100 µM; in the assay with MDA-N it was > 100 µM (inactive). For the same compound, the GI50 in the assay on Malme-3M, in the assay with OVCAR-8, with PC-3, in the assay on RXF 393, with SK-MEL-2 and with SK-MEL-5 was > 100 µM (inactive) each time. Also, the GI50 in the assay with SK-OV-3, with SN12C, in the assay with SW-620, with T47D, in the assay on UACC-257 and in the assay with UO-31 was > 100 µM (inactive) each time.

For the compound `COC(=O)C1CC(C=[N+](C)C)=C(SC)N1C(=O)OCc1ccccc1` (configuration not stated), the GI50 is > 100 µM (inactive) with 786-0; > 100 µM (inactive) with DU-145; > 100 µM (inactive) in the assay on EKVX; > 100 µM (inactive) with HCC 2998; greater than 100 µM in the assay on HCT-15; > 100 µM (inactive) in the assay on MDA-N. Besides, the GI50 in the assay with Malme-3M is > 100 µM (inactive); in the assay on NCI-H460, 30.8 µM (inactive); in the assay with OVCAR-4, > 100 µM (inactive); in the assay on OVCAR-8 it was > 100 µM (inactive); in the assay on PC-3, > 100 µM (inactive); in the assay with RXF 393, > 100 µM (inactive). The GI50 with SK-MEL-2, in the assay on SK-MEL-5, in the assay with SK-OV-3, in the assay with SW-620, in the assay on T47D and with UACC-257 was > 100 µM (inactive) each time. In the assay on UO-31, the GI50 is > 100 µM (inactive).

On to `CCN(CC)CCC(=O)c1ccc(Oc2ccccc2)cc1`, for which the GI50 is 15.6 µM (inactive) in the assay with 786-0; 27.7 µM (inactive) with DU-145; 20.8 µM (inactive) with EKVX; 17.6 µM (inactive) in the assay on HCC 2998; 17.4 µM with HCT-15; 16.5 µM (inactive) in the assay with MDA-N. For the same compound, the GI50 was 15.1 µM (inactive) in the assay with Malme-3M; 23.9 µM (inactive) with OVCAR-4; 39.7 µM (inactive) in the assay on OVCAR-8; 39 µM (inactive) in the assay on PC-3; 18.9 µM (inactive) with RXF 393; 97.7 µM (inactive) in the assay on SK-MEL-2. Also, the GI50 in the assay with SK-OV-3 was > 100 µM (inactive); in the assay with SN12C it was 17.6 µM (inactive); with SW-620 it was 17.1 µM (inactive); in the assay on T47D it was 19 µM (inactive); with UACC-257, 17.2 µM (inactive).

Regarding `Cc1cc2nc(N)n[n+]([O-])c2cc1C`, the GI50 in the assay on 786-0 was > 100 µM (inactive); in the assay with DU-145, > 100 µM (inactive); with EKVX, > 100 µM (inactive); in the assay on HCC 2998, > 100 µM (inactive); with HCT-15, greater than 100 µM; with MDA-N it was > 100 µM (inactive). Further, the GI50 with Malme-3M, with OVCAR-8, in the assay on PC-3, in the assay on RXF 393, in the assay on SK-MEL-2 and in the assay on SK-MEL-5 was > 100 µM (inactive) throughout. Further, the GI50 in the assay with SK-OV-3, with SN12C, in the assay on SW-620, in the assay on T47D, in the assay on UACC-257 and with UO-31 was > 100 µM (inactive) throughout.

Consider `CC1OC1P(=O)(O)O` (configuration not stated), for which the GI50 in the assay with 786-0 was > 100 µM (inactive); in the assay with DU-145 it was > 100 µM (inactive); with EKVX, > 100 µM (inactive); in the assay on HCC 2998, > 100 µM (inactive); in the assay with HCT-15, greater than 100 µM; in the assay with MDA-N it was > 100 µM (inactive). Besides, the GI50 in the assay on NCI-H460, in the assay with OVCAR-4, with OVCAR-8, with PC-3, in the assay with RXF 393 and in the assay on SK-MEL-2 was > 100 µM (inactive) each time. Also, the GI50 in the assay with SK-MEL-5, with SK-OV-3, in the assay on SN12C, in the assay on SW-620, in the assay on T47D and in the assay with UACC-257 was > 100 µM (inactive) throughout. Also, the GI50 with UO-31 is > 100 µM (inactive).

Consider `CC(=O)OCCCCn1nncc1Cn1ccc(=O)n(Cc2cnnn2CCCCOC(C)=O)c1=O`, for which the GI50 is > 100 µM (inactive) in the assay on 786-0; > 100 µM (inactive) in the assay with DU-145; > 100 µM (inactive) in the assay on EKVX; > 100 µM (inactive) in the assay with HCC 2998; greater than 100 µM in the assay on HCT-15; > 100 µM (inactive) in the assay on MDA-N. Further, the GI50 in the assay on Malme-3M, with OVCAR-4, in the assay with OVCAR-8, in the assay on PC-3, in the assay on RXF 393 and with SK-MEL-2 was > 100 µM (inactive) each time. For the same compound, the GI50 with SK-MEL-5, with SK-OV-3, in the assay on SN12C, in the assay on SW-620, in the assay with T47D and in the assay with UACC-257 was > 100 µM (inactive) in each case. The GI50 in the assay with UO-31 was > 100 µM (inactive).

With `C=CCCCC1CCCNC1=O` (configuration not stated), the GI50 in the assay on 786-0 is > 100 µM (inactive); in the assay with DU-145, > 100 µM (inactive); in the assay on EKVX, > 100 µM (inactive); with HCC 2998, > 100 µM (inactive); with HCT-15, 19 µM; in the assay on MDA-N, 58.5 µM (inactive). The GI50 in the assay with NCI-H460 is 42.6 µM (inactive); with OVCAR-4, > 100 µM (inactive); with OVCAR-8, > 100 µM (inactive); in the assay on PC-3, > 100 µM (inactive); with RXF 393, > 100 µM (inactive); in the assay with SK-MEL-2 it was > 100 µM (inactive). Further, the GI50 in the assay with SK-MEL-5, in the assay on SK-OV-3, in the assay on SN12C, in the assay with SW-620, in the assay on T47D and in the assay with UACC-257 was > 100 µM (inactive) throughout. Besides, the GI50 in the assay with UO-31 is > 100 µM (inactive).

The values above are taken from ChEMBL document CHEMBL1201862, “PubChem BioAssay data set” (2004).
